Measured values reported in US11578130B2, “Regulatable chimeric antigen receptor” (Novartis AG, priority 2013, dated 2023).
Read-outs that look alike come from different tables or passages of the source.

Key:
[1] = Clinical trial: RAD001 trough levels in blood; assay type: in vivo, human
[2] = tested on: Jurkat cells with NFAT-LUC reporter (JNL); test: Activation of RCAR half switches (intracellular FKBP/FRB) by RAD001, NFAT luciferase; assay type: cell-based; conditions: RCAR half switches with CD27, CD28, ICOS, OX40 or 41BB costimulatory domain; RAD001 50 nM
Procedure: Jurkat cells with NFAT-LUC reporter (JNL) were grown to the density of 0.5×10^6/ml in Jurkat cell growth media with puromycin at 0.5 μg/ml. For each transfection 2.5×10^6 cells were spin down at 100 g for 10 minutes. Two μg of DNA per construct were used per transfection. Amaxa Nucleofector solution V and supplement I was mixed and 100 μl was added into the tube with DNA construct. The mixture was then added to the cells and transferred to the electroporation cuvette. Electroporation was done under setting X-001 using Amaxa Nucleofector II Device. 0.5 ml of growth media was added immediately after electroporation and the mixture were transferred into 2 ml growth media in one well of the 6-well plate.
After one hour, RAD001 compound was delivered at 50 nM when testing RCARs with different costimulatory signaling domains (FIGS. 44A and 44B), or various concentrations: 0 nM, 0.01 nM, 0.03 nM, 0.1 nM, 0.3 nM, 1 nM, 3 nM, and 10 nM (FIGS. 45A and 45B). Tissue culture plate was coated with 5 μg/ml of anti anti-CD19 antibody or isotype control for 2 hrs, blocked with the blocking buffer (DPBS with 5% serum) for 1 hour. The transfected cells with or without RAD001 were resuspended and added to the target plate with 100 μl per well and incubated for 18 hrs. […] The samples were incubated for 5 min at 37° C. and then luminescence is measured using Envision plate reader.

B/Brisbane/60/2008 = test: Clinical trial: hemagglutination inhibition titers and seroconversion, vaccine strain B; assay type: in vivo, human
Procedure: (§1) The trial was observer-blind because the placebo in the RAD001 0.5 mg daily and 20 mg weekly cohorts differed slightly from the RAD001 tablets in those cohorts. […] The treatment duration for all cohorts was 6 weeks during which time subjects underwent safety evaluations in the clinic every 2 weeks. After subjects had been dosed for 4 weeks, RAD001 steady state levels were measured pre-dose and at one hour post dose. After completing the 6 week course of study drug, subjects were given a 2 week drug free break to reverse any possible RAD001-induced immunosuppression, and then were given a 2012 seasonal influenza vaccination (Agrippal®, Novartis Vaccines and Diagnostics, Siena, Italy) containing the strains H1N1 A/California/07/2009, H3N2 A/Victoria/210/2009, B/Brisbane/60/2008. Four weeks after influenza vaccination, subjects had serum collected for influenza titer measurements. Antibody titers to the 3 influenza vaccine strains as well as to 2 heterologous strains (A/H1N1 strain A/New Jersey/8/76 and A/H3N2 strain A/Victoria/361/11) were measured by standard hemagglutination inhibition assay (Kendal, A P et al. (1982) Concepts and procedures for laboratory-based influenza surveillance. Atlanta: Centers for Disease Control and Prevention B17-B35).
(§2) The ability of RAD001 to improve immune function in elderly volunteers was evaluated by measuring the serologic response to the 2012 seasonal influenza vaccine. The hemagglutination inhibition (HI) geometric mean titers (GMT) to each of the 3 influenza vaccine strains at baseline and 4 weeks after influenza vaccination are provided in Table 22. The primary analysis variable was the HI GMT ratio (4 weeks post vaccination/baseline). […] This endpoint was chosen because a 1.2-fold increase in the influenza GMT ratio induced by the MF-59 vaccine adjuvant was associated with a decrease in influenza illness (Iob, A et al. (2005) Epidemiol Infect 133:687-693).
(§3) Rates of seroconversion 4 weeks after influenza vaccination were also evaluated. Seroconversion was defined as the change from a negative pre-vaccination titer (i.e., HI titer <1:10) to post-vaccination HI titer ≥1:40 or at least 4-fold increase from a non-negative (≥1:10) pre-vaccination HI titer.

[3] = tested on: H1N1 A/California/07/2009; test: Clinical trial: hemagglutination inhibition titers and seroconversion, vaccine strain A/H1N1; assay type: in vivo, human
Procedure: as §1, §2, §3

[4] = tested on: PD-1 positive CD4 and CD8 T cells; test: Clinical trial: immunophenotyping of PBMC by flow cytometry; assay type: in vivo, human
[5] = cited from earlier work
JNL cells = test: Single vector CD19 RCAR constructs in JNL cells, NFAT reporter activation by dimerization molecule; assay type: cell-based; conditions: nM to sub-nM doses
Text: The constructs and viral particles were made and tested essentially as described in Example 11. Viral particles were introduced into JNL cells and evaluated for activity essentially as described in Example 1 except that the target was CD19 (as opposed to EGFRviii).
Construct 143775 was introduced into cells and the affect of dimerization molecule concentration on activation evaluated essentially as described in Example 14.

[6] = tested on: influenza vaccine strains; test: Clinical trial: serologic response to 2012 seasonal influenza vaccine, primary endpoint across the 3 vaccine strains (HI GMT ratio); assay type: in vivo, human; conditions: for primary endpoint of the study (HI GMT ratio versus placebo): ITT population
[7] = tested on: A/H1N1/California/07/2009 influenza; test: Serum anti-influenza IgG and IgM levels before and 4 weeks post influenza vaccination; assay type: in vivo, human; conditions: RAD001 versus placebo cohorts, Kruskal-Wallis rank sum test
Procedure: FIGS. 30A and 30B are graphic representations of IgG and IgM levels before and after influenza vaccination. Levels of anti-A/H1N1/California/07/2009 influenza IgG and IgM were measured in serum obtained from subjects before and 4 weeks post influenza vaccination.

[8] = Baseline (2 weeks prior to influenza vaccination), RAD001 0.5 mg daily, N = 50
[9] = Baseline (2 weeks prior to influenza vaccination), RAD001 5 mg weekly, N = 49
[10] = Intention to Treat Population, 0.5 mg, N = 48
[11] = Intention to Treat Population, 5 mg, N = 49
[12] = Intention to Treat Population, 20 mg, N = 48
[13] = Subjects with Baseline Titers <=40, 5 mg
[14] = Subjects with Baseline Titers <=40, 20 mg
[15] = Week 4 after influenza vaccination, RAD001 0.5 mg daily, N = 50
[16] = Week 4 after influenza vaccination, RAD001 5 mg weekly, N = 49
[17] = Week 4 after influenza vaccination, RAD001 20 mg weekly, N = 49

With `CO[C@H]1C[C@@H]2CC[C@@H](C)[C@@](O)(O2)C(=O)C(=O)N2CCCC[C@H]2C(=O)O[C@H]([C@H](C)C[C@@H]2CC[C@@H](OCCO)[C@H](OC)C2)CC(=O)[C@H](C)/C=C(\C)[C@@H](O)[C@@H](OC)C(=O)[C@H](C)C[C@H](C)/C=C/C=C/C=C/1C` [RAD001, (1R,9S,12S,15R,16E,18R,19R,21R,23S,24E,26E,28E,30S,32S,35R)-1,18-dihydroxy-12-{(1R)-2-[(1S,3R,4R)-4-(2-hydroxyethoxy)-3-methoxycyclohexyl]-1-methylethyl}-19,30-dimethoxy-15,17,21,23,29,35-hexamethyl-11,36-dioxa-4-aza-tricyclo[30.3.1.04,9]hexatriaconta-16,24,26,28-tetraene-2,3,10,14,20-pentaone] the “average RAD001 trough level” value ([1]; 5 mg weekly, 0.3 ng/ml is the lower limit of quantification) was “below detection limits”, the “trough level of study regimens relative to approved regimens, fold lower” value ([1]; dosing regimens used in the immunization study) was 3-20 fold and the “target-dependent NFAT activity” value [2] was “all able to activate the target-dependent NFAT activity”. For the same molecule, the “HI GMT, B” value (B/Brisbane/60/2008; [8]) was 44.2, the “HI GMT, B” value (B/Brisbane/60/2008; [9]) was 64.8 and the “Percent of subjects with seroconversion to influenza 4 weeks after vaccination, B” value (from here on “Percent of subjects … after vaccination, B”) (B/Brisbane/60/2008; [10]) was 27%. For the same molecule, the “Percent of subjects … after vaccination, B” value (B/Brisbane/60/2008; [11]) was 22%, the “Percent of subjects … after vaccination, B” value (B/Brisbane/60/2008; [12]) was 19% and the “GMT ratio (week 4 post vaccination/baseline), B” value (B/Brisbane/60/2008; RAD001 0.5 mg daily, N = 50) was 2.5. For the same molecule, the “GMT ratio (week 4 post vaccination/baseline), B” value (B/Brisbane/60/2008; RAD001 5 mg weekly, N = 49) was 2.2, the “GMT ratio (week 4 post vaccination/baseline), B” value (B/Brisbane/60/2008; RAD001 20 mg weekly, N = 49) was 2.1 and the “Percent of subjects … after vaccination, B” value (B/Brisbane/60/2008; Subjects with Baseline Titers <=40, 0.5 mg, * p-value < 0.05 versus placebo) was 40* Percent. The “Percent of subjects … after vaccination, B” value (B/Brisbane/60/2008; [13]) was 33%, the “Percent of subjects … after vaccination, B” value (B/Brisbane/60/2008; [14]) was 28% and the “HI GMT, B” value (B/Brisbane/60/2008; [15]) was 98.4. For the same molecule, the “HI GMT, B” value (B/Brisbane/60/2008; [16]) was 117.3, the “HI GMT, B” value (B/Brisbane/60/2008; [17]) was 99.2 and the “HI GMT, A/H1N1” value [3, 8] was 102.8. For the same molecule, the “HI GMT, A/H1N1” value [3, 9] was 84.2, the “HI GMT, A/H1N1” value ([3]; Baseline (2 weeks prior to influenza vaccination), RAD001 20 mg weekly, N = 49) was 90.1 and the “Percent of subjects with seroconversion to influenza 4 weeks after vaccination, H1N1” value (“Percent of subjects with seroconversion … H1N1” for short) [3, 10] was 27%. For the same molecule, the “Percent of subjects with seroconversion … H1N1” value [3, 11] was 27%, the “Percent of subjects with seroconversion … H1N1” value [3, 12] was 17% and the “GMT ratio (week 4 post vaccination/baseline), A/H1N1” value ([3]; RAD001 0.5 mg daily, N = 50) was 2.6. The “GMT ratio (week 4 post vaccination/baseline), A/H1N1” value ([3]; RAD001 5 mg weekly, N = 49) was 2.5, the “GMT ratio (week 4 post vaccination/baseline), A/H1N1” value ([3]; RAD001 20 mg weekly, N = 49) was 1.8 and the “Percent of subjects with seroconversion … H1N1” value ([3]; Subjects with Baseline Titers <=40, 0.5 mg) was 42%. The “Percent of subjects with seroconversion … H1N1” value [3, 13] was 45%, the “Percent of subjects with seroconversion … H1N1” value [3, 14] was 36% and the “HI GMT, A/H1N1” value [3, 15] was 190.2. For the same molecule, the “HI GMT, A/H1N1” value [3, 16] was 198.73, the “HI GMT, A/H1N1” value [3, 17] was 129.7 and the “percentage of PD-1 negative CD4 T cells” value ([4]; RAD001 cohorts as compared to the placebo cohorts) was “increased”. For the same molecule, the “percentage of CD4 PD-1 positive T cells” value ([4]; week 6 and 12, all RAD001 cohorts) was “decreased from baseline”, the “percentage of CD8 PD-1 positive cells” value ([4]; week 6 and 12, the two lower dose RAD001 cohorts) was “decreased from baseline” and the “trough level of RAD001” value ([5]; 10 mg daily oncology dosing regimen) was “approximately 20 ng/ml”. For the same molecule, the “trough level of RAD001” value ([5]; 0.75-1.5 mg bid transplant dosing regimen) was “approximately 3 ng/ml”, the “activation of RCAR (Construct 143775) over dimerization molecule concentration” value (JNL cells) was “effective at a broad range of concentrations” and the “primary endpoint of the study (HI GMT ratio versus placebo)” value ([6]; RAD001 0.5 mg daily or 5 mg weekly) was “met the GMT primary endpoint”. The “primary endpoint of the study (HI GMT ratio versus placebo)” value ([6]; RAD001 20 mg weekly) was “but not higher dose (20 mg weekly) cohort met the primary endpoint”, the “increase in influenza titers in subgroup” value ([6]; human, in vivo) was “greater RAD001-associated increase in titers than did the ITT population” and the “change from baseline to 4 weeks post vaccination in anti-H1N1 influenza IgG levels” value [7] was “No significant difference”. For the same molecule, the “change from baseline to 4 weeks post vaccination in anti-H1N1 influenza IgM levels” value [7] was “No significant difference”.
